Source: patent US20250163387A1, “HUMAN PITUITARY NEUROENDOCRINE TUMOR ORGANOIDS AND METHODS OF MAKING AND USING THE SAME” (ARIZONA BOARD OF REGENTS OF THE UNIVERSITY OF ARIZONA, A …, priority 2022, published 2025)

How the values were obtained:
hPITO37 = assay: Spectral flow cytometry (SSTR2, SSTR5, ACTH, zombie); format: cell-based, human; conditions: Rela 382 nM, Mife 2.85 nM
Experimental: (§1) The multicolor flow cytometry panel was designed using the Cytek®Full Spectrum Viewer online tool to calculate the similarity index. The organoids were harvested in cold SFDM media and centrifuged at 400×g for 5 minutes. Supernatant was discarded and organoids were dissociated to single cells using Accutase® (Thermo Fisher Scientific 00-4555-56). The enzymatic reaction was stopped using prewarmed DPBS and cells were then centrifuged at 400×g for 5 minutes and incubated with fluorochrome-conjugated/unconjugated primary surface or cytoplasmic antibodies at 4° C. for 30 minutes. Cells were then washed with Cell Staining Buffer (BioLegend #420-201) and incubated with secondary antibodies at 4° C. for 30 minutes. Cells were fixed using Cytofix/Cytoperm™ Fixation/Permeabilization Solution (BD Biosciences #554714) at 4° C. for 20 minutes, followed by washing with Fixation/Permeabilization wash buffer. Cells were then labeled with fluorochrome-conjugated/unconjugated intracellular primary antibodies at 4° C. for 30 minutes, washed and incubated with secondary antibodies at 4° C. for 30 minutes. Cells resuspended in cell staining buffer and fluorescence measured using the Cytek Aurora 5 Laser Spectral Flow Cytometer. An unstained cell sample was fixed and used as reference control. UltraComp eBeads™, Compensation Beads (Thermo Fisher Scientific #01-2222-42) were stained with the individual antibodies and used as single stain control for compensation and gating. Data was acquired using the Cytek™ Aurora and analyzed using Cytobank software (Beckman Coulter, Indianapolis, IN).

iPSC^USP48MV organoids [1] = assay: as above; format: cell-based, human; conditions: Rela 500 nM, Mife 500 nM
Experimental: as §1

iPSC^USP48MV organoids [2] = assay: Proliferation by EdU uptake; format: cell-based, human; conditions: drug alone, 500 nM
Experimental: (§2) Organoids were immunostained using published protocols by our laboratory. Proliferation was measured by using 5-ethynyl-2'-deoxyuridine (EdU) incorporation according to the Manufacturer's protocol (Click-IT EdU Alexa Fluor 555 Imaging Kit, Thermo Fisher Scientific C10338). Costaining was performed by blocking fixed organoids with 2% donkey serum (Jackson Immuno Research, #017-000-121) diluted in 0.01% PBST for 1 hr. at room temperature. Organoids were then incubated overnight at 4° C. with primary antibodies followed by secondary antibodies and Hoechst (Thermo Fisher Scientific H1399, 1:1000 in 0.01% PBST) for 1 hr at room temperature. Human specific primary antibodies used included: rabbit anti-ACTH (Thermo Fisher Scientific 701293, 1:250), rabbit anti-Synaptophysin (Thermo Fisher Scientific PA5-27286, 1:100), […] (Thermo Fisher Scientific PA5-98650, 1:50), rabbit anti-LH (Thermo Fisher Scientific PA5-102674, 1:100), mouse anti-FSH (Thermo Fisher Scientific MIF2709, 1:100), mouse anti-PRL (Thermo Fisher Scientific CF500720, 1:100), Alexa Flour conjugated GH (NB500-364AF647, 1:100) and mouse anti-CAM5.2 (SIGMA […]-95, 1:250). The secondary antibodies used included Alexa Fluor 488 Donkey Anti Rabbit IgG (H+L) (Thermo Fisher Scientific A21206, 1:100) or Alexa Fluor 647 Donkey Anti Mouse IgG (H+L) (Thermo Fisher Scientific A31571, 1:100). Organoids were visualized and images acquired by confocal microscopy using the Nikon CrestV2 Spinning Disk. Fluorescence intensity and percentage of EdU positive cells of total cells, were calculated using Nikon Elements Software (Version 5.21.05).

iPSC^ctrl organoids [3] = assay: Proliferation by EdU uptake; format: cell-based, human; conditions: drug alone, 500 nM
Experimental: as §2

SSTR5 = assay: Differential expression of SSTR5 in iPSC generated pituitary tumor organoids; format: cell-based, human; conditions: iPSC organoids (ctrl, USP48MI, USP48MV, USP8); 500 nM; vs vehicle
iPSC^USP48MV organoids [4] = assay: Nuclear irregularity index (NII) morphometric analysis; format: cell-based, human; conditions: 500 nM
Experimental: (§3) Nuclear Morphometric Analysis (NMA) using treated organoids was performed based on a published protocol that measures cell viability based on the changes in nuclear morphology of the cells using nuclear stain Hoechst or DAPI [30]. Images of organoid nuclei were analyzed using the ImageJ Nuclear Irregularity Index (NII) plugin for key parameters that included cell area, radius ratio, area box, aspect, and roundness. Using the published spreadsheet template, the NII of each cell was calculated with the following formula: NII=Aspect−Area Box+Radius Ratio+Roundness. The area vs NII of vehicle-treated cells were plotted as a scatter plot using the template and considered as the normal cell nuclei. The same plots were generated for each condition, and the NII and area of treated cells were compared to the normal nuclei, and classified as one of the following NMA populations: Normal (N; similar area and NII), Mitotic (S; similar area, slightly higher NII), Irregular (I; similar area, high NII), Small Regular (SR; apoptotic, low area and NII), Senescent (LR; high area, low NII), Small Irregular (SI; low area, high NII), or Large Irregular (LI; high area, high NII). […] The percentage of cells in each NII classification category were calculated and plotted as a histogram using GraphPad Prism.

iPSC^ctrl organoids [5] = assay: as above; format: cell-based, human; conditions: 500 nM
Experimental: as §3

macroadenomas = conditions: patients with macroadenomas; relacorilant for three months; cited from earlier work
[6] = test system: pancreatic and ovarian cancer cell lines; conditions: cited from earlier work
FKBP5 = assay: GR modulation: GR target gene FKBP5 expression in PitNET organoids; format: cell-based, human
SSTR2 = assay: Differential expression of SSTR2 in iPSC generated pituitary tumor organoids; format: cell-based, human; conditions: iPSC organoids (ctrl, USP48MI, USP48MV, USP8); 500 nM; vs vehicle

## Cn1cc(S(=O)(=O)N2CCC3=Cc4c(cnn4-c4ccc(F)cc4)C[C@]3(C(=O)c3cc(C(F)(F)F)ccn3)C2)cn1 [relacorilant]
hPITO37; Pas 837.5 nM
  cell death (Zombie positive cells): significant increase
hPITO37; vs Veh
  percentage of SSTR2 positive cells: significant increase
  percentage of SSTR5 positive cells: significant increase
iPSC^USP48MV organoids [1]; Pas 100 nM
  ACTH positive cells: did not significantly increase
  cell death (Zombie positive cells): significant increase
iPSC^USP48MV organoids [1]; vs Veh
  percentage of SSTR2 positive cells: significant increase
  percentage of SSTR5 positive cells: significant increase
iPSC^USP48MV organoids [2]
  cell proliferation (EdU uptake): did not induce organoid proliferation
iPSC^ctrl organoids [3]
  cell proliferation (EdU uptake): did not induce organoid proliferation
SSTR5
  expression of SSTR5: significant induction
iPSC^USP48MV organoids [4]
  apoptotic cells by nuclear morphology (NII): increased apoptotic cells
iPSC^ctrl organoids [5]
  apoptotic cells by nuclear morphology (NII): not observed
macroadenomas
  tumor (macroadenoma) regression: tumor regression in two patients
[6]
  apoptosis in vitro: induces apoptosis
FKBP5
  differential expression of FKBP5: significantly reduced
SSTR2
  expression of SSTR2: significant induction
